Results published in PMC12444563 (ACS Omega, 2025).
Like-named read-outs stand apart in the source and are kept apart here. Starred links: 1 amine or outer side, 2 acyl side, 3 side chain; linkers in the order of their positions; H or OH if unused. Non-standard residues stand in square brackets, D forms with d. Residues, ends and D or L forms follow the SMILES beside them. *: point of attachment. Paclitaxel(2'-OCO-DMEDA) = CC(=O)O[C@H]1C(=O)[C@@]2(C)[C@H]([C@H](OC(=O)c3ccccc3)[C@]3(O)C[C@H](OC(=O)[C@H](OC(=O)N(C)CCN(C)*)[C@@H](NC(=O)c4ccccc4)c4ccccc4)C(C)=C1C3(C)C)[C@]1(OC(C)=O)CO[C@@H]1C[C@@H]2O; Fmoc = O=C(OCC1c2ccccc2-c2ccccc21)*; PABC = O=C(OCc1ccc(N[*:1])cc1)[*:2]

Experiments:
[1] = biological target: T1, bovine spleen Cathepsin B (Bos taurus, UniProt P07688); experiment: Cathepsin B cleavage assay (UHPLC-HRMS Orbitrap analysis); type: biochemical; details: for % residual compound, Average %: 37 °C, pH 5.4, 5 μM, triplicate
T1 construct: bovine spleen Cathepsin B (SigmaAldrich C6286, ≥10 units/mg protein); purchased SigmaAldrich C6286; host or cells: bovine spleen (tissue-derived)
Procedure: The Cathepsin B cleavage assay was performed by incubating compounds 1–4 at 37 °C under gently shaking conditions in the presence of the active form of Cathepsin B. More specifically, 122.4 μL of an enzyme-activating solution (composed of 7.48 mg of L-cysteine dissolved in 2 mL of a buffer solution containing 20 mM NaOAc, 1 mM EDTA, pH 5.4 to give a final cysteine concentration of 30.88 mM) was mixed with 12.6 μL of enzyme stock solution, previously prepared by solubilization of bovine spleen Cathepsin B (SigmaAldrich C6286, ≥10 units/mg protein) in 1 mL of buffer solution (without cysteine) to give a concentration of enzyme stock solution of 12 units/mL. After the dilution, the final concentration of Cathepsin B was 1.12 u/mL. Then, the diluted enzyme solution was incubated at 37 °C for 15 min to activate Cathepsin B. After 15 min, 6 μL of 117 μM compound solution, previously prepared by diluting 5.85 μL of 1 mM stock solution of the compound in 44.15 μL of dry DMSO (giving a 117 μM solution), was added to the test tube and the cleavage assay solution was incubated at 37 °C under gentle shaking conditions. […] The solutions were then centrifuged for 10 min at 6000 rpm. Blank solutions were prepared for each compound by dilution of 6 μL of a 117 μM compound solution into 135 μL of an enzyme-activating solution. UHPLC-MS analyses were carried out using a Vanquish UHPLC System (Thermo Fisher Scientific) and Orbitrap Exploris 120 (Thermo Fisher Scientific). Thermo Scientific Xcalibur software was used to control the instruments and acquire the data. Freestyle 1.8 software was used for processing the data. UHPLC chromatographic separations were performed on a reversed-phase column Accucore C18 50 × 2.1 mm, 2.6 μm (Thermo Fisher Scientific). A gradient system was used with the mobile phase consisting of solvent A: H2O + 0.05% formic acid and solvent B: acetonitrile. The areas of the peak of compounds 1–4 in the extracted ion chromatogram were used to evaluate the kinetics of the cleavage process. The percentage of residual compound was calculated as the ratio between the areas of the peak of the full compound at the desired time point and in the blank analysis. %Residualcompound=areacompoundatthedesiredtimepoint/areacompoundintheblanksolution×100

[2] = pH stability assay (buffers pH 5.4 and 7.4, UHPLC-HRMS); type: physicochemical; details: 37 °C, average of two replicates
Procedure: The pH stability assay was performed by incubating compounds 1–4 at 37 °C in buffers at pH 5.4 and 7.4 under gentle shaking conditions. More specifically, a solution of 20 mM AcONa and 1 mM EDTA in mQ water was used as a pH 5.4 buffer. A solution of PBS tablets in mQ water was used as a pH 7.4 buffer. A 1 mM stock solution of compounds 1–4 in dry DMSO was prepared and a […] solution was then obtained by dilution of 5.85 μL of the stock solution in 44.15 μL of dry DMSO. Then, 6 μL of the […] compound solution was diluted into 135 μL of the desired buffer, and the solution was incubated at 37 °C under gently shaking conditions. Samples aliquots (10 μL) were taken out at 15, 30 min and 1, 2, and 4 h and quenched with 10 μL of acetonitrile. The solutions were then injected in UHPLC-HRMS to monitor the stability of compounds 1–4 under different pH conditions. UHPLC-MS analyses were carried out as previously described for the Cathepsin B cleavage assay. The percentage of the residual compound was calculated as described above.
The stability of compounds 1–4 and of the free drug PTX was evaluated in vitro by UHPLC-Orbitrap analysis incubating the samples at 37 °C in buffer solutions at pH 5.4, to simulate the pH inside the cancer cells, and at physiological pH 7.4. The same buffer of the Cathepsin B cleavage assay was used for the test at pH 5.4. The percentage of residual compounds 1–4 was measured over time by calculating the ratio between the areas of the peak of the full compound at the desired time point and at time zero, and the results were compared with the percentage of residual compounds 1–4 calculated during the Cathepsin B cleavage assay (Tables S6).

[3] = Plasma stability assay, rat plasma; type: in vitro ADME, rat (Sprague Dawley); details: Sprague Dawley, rat, plasma, 37 °C, read-out: Plasma stability (matrix: rat) % remaining; for remaining at 0.5 h, 1 μM: 30 min; for remaining at 2 h, 1 μM: 120 min; for remaining at 4 h, 1 μM: 240 min (4 h)
Procedure: (§1) The plasma stability assays were performed by Selvita SA (Krakow, Poland) following the protocol described in the Supporting Information. For the use of human plasma, consent was obtained from the subject or from the next of kin.
(§2) 9. Plasma stability assays
(§3) Protocol for full plasma assay: a stock solution of compounds 1-4 in DMSO was incubated in human (Anticoagulants: Na Heparin; Gender: Pooled; Cat. No: IPLANAH100ML; Lot: 37921; Supplier:
(§4) Innovative Research) and rat (Strain: Sprague Dawley; Anticoagulants: Na Heparin; Cat. No:
(§5) IGRTSDPLANAH100ML; Supplier: Innovative Research) plasma at a final concentration of 1 μM (final concentration of DMSO = 1 %). The samples were incubated at 37 °C with a shaking of 450 rpm. Aliquots of the samples were analyzed at time 0, 30 minutes, 2 and 4 hours by LC-MS/MS […]
(§6) The areas of the peak of the compounds 1-4 in the LC chromatogram were used to evaluate stability profile. The percentage of residual compounds 1-4 was calculated as the ratio between the area of the peak of the analyte and the area of the internal standard.
(§7) % residual compound = Area analyte ∙ 100
(§8) Table S7. LC-MS data of the stability assays in plasma extracts of compound 1.
(§9) Stability assays compound 1
(§10) Time Plasma stability Plasma stability S9 stability S9 stability
(§11) (min.) (matrix: rat) (matrix: human) Time (min.) (matrix: rat) (matrix: human) % remaining % remaining % remaining % remaining
(§12) Table S8. LC-MS data of the stability assays in plasma extracts of compound 2.
(§13) Stability assays compound 2

[4] = Plasma stability assay, human plasma; type: in vitro ADME; details: both sexes, human, plasma, 37 °C, read-out: Plasma stability (matrix: human) % remaining; for remaining at 0.5 h, 1 μM: 30 min; for remaining at 2 h, 1 μM: 120 min; for remaining at 4 h, 1 μM: 240 min (4 h)
Procedure: as §1, §2, §3, §4, §5, §6, §7, §8, §9, §10, §11, §12, §13

[5] = 2 min incubation with Cathepsin B
[6] = 15 min incubation with Cathepsin B
[7] = 30 min incubation with Cathepsin B
[8] = 60 min incubation with Cathepsin B
[9] = 120 min incubation with Cathepsin B
[10] = PBS pH 7.4, pH 7.4 PBS, 30 min, read-out: Stability pH 7.4, % residual compound
[11] = acetate/EDTA buffer pH 5.4, pH 5.4 buffer, 120 min, read-out: Stability pH 5.4, % residual compound
[12] = acetate/EDTA buffer pH 5.4, pH 5.4 buffer, 240 min (4 h), read-out: Stability pH 5.4, % residual compound

Row | SMILES | % residual compound, Average % [1, 5] [%] | % residual compound, Average % [1, 6] [%] | % residual compound, Average % [1, 7] [%] | % residual compound, Average % [1, 8] [%] | % residual compound, Average % [1, 9] [%] | % residual compound, % R1 ([1]; replicate R1, 2 min) [%] | % residual compound, % R1 ([1]; replicate R1, 15 min) [%] | % residual compound, % R1 ([1]; replicate R1, 30 min) [%] | % residual compound, % R1 ([1]; replicate R1, 60 min) [%] | % residual compound, % R1 ([1]; replicate R1, 120 min) [%] | % residual compound, % R1 ([1]; replicate R1, 240 min) [%] | % residual compound, % R3 ([1]; replicate R3, 2 min) [%] | % residual compound, % R3 ([1]; replicate R3, 15 min) [%] | % residual compound, % R3 ([1]; replicate R3, 30 min) [%] | % residual compound, % R3 ([1]; replicate R3, 60 min) [%] | % residual compound, % R3 ([1]; replicate R3, 120 min) [%] | % residual compound, % R3 ([1]; replicate R3, 240 min) [%] | remaining at 0.5 h, 4.98 µM [2, 10] [%] | remaining at 2 h, 4.98 µM [2, 11] [%] | remaining at 4 h, 4.98 µM [2, 12] [%] | further results
1 | CC(=O)O[C@H]1C(=O)[C@@]2(C)[C@H]([C@H](OC(=O)c3ccccc3)[C@]3(O)C[C@H](OC(=O)[C@H](OC(=O)N(C)CCN(C)C(=O)OCc4ccc(NC(=O)CNC(=O)[C@H](CC(C)C)NC(=O)[C@H](Cc5ccccc5)NC(=O)CNC(=O)OCC5c6ccccc6-c6ccccc65)cc4)[C@@H](NC(=O)c4ccccc4)c4ccccc4)C(C)=C1C3(C)C)[C@]1(OC(C)=O)CO[C@@H]1C[C@@H]2O [Compound 2, Fmoc-GFLG-PABC-diamine-PTX] (Fmoc-GFLG[PABC]-{Paclitaxel(2'-OCO-DMEDA)}) | 99.63 | 98.45 | 95.35 | 95.89 | 94.14 | 99.33 | 98.52 | 92.26 | 92.45 | 99.27 | 96.36 | 104.39 | 102.02 | 95.37 | 97.64 | 90.86 | 89.52 | 90.6 | 85.4 | 86.8 | remaining at 2 h, 4.98 µM ([2]; PBS pH 7.4, pH 7.4 PBS, 120 min, read-out: Stability pH 7.4, % residual compound): 90.5%; Stability pH 5.4, % residual compound ([2]; pH 5.4 buffer, 30 min): 92.49%; Stability pH 7.4, % residual compound ([2]; pH 7.4 PBS, 240 min): 91.99%; remaining at 0.5 h, 1 μM [3]: 92.1%; remaining at 2 h, 1 μM [3]: 99%; remaining at 4 h, 1 μM [3]: 103%; remaining at 0.5 h, 1 μM [4]: 102%; remaining at 2 h, 1 μM [4]: 104%; remaining at 4 h, 1 μM [4]: 93.9%
2 | CC(=O)O[C@H]1C(=O)[C@@]2(C)[C@H]([C@H](OC(=O)c3ccccc3)[C@]3(O)C[C@H](OC(=O)[C@H](OC(=O)N(C)CCN(C)C(=O)OCc4ccc(NC(=O)[C@H](C)NC(=O)[C@@H](NC(=O)OCC5c6ccccc6-c6ccccc65)C(C)C)cc4)[C@@H](NC(=O)c4ccccc4)c4ccccc4)C(C)=C1C3(C)C)[C@]1(OC(C)=O)CO[C@@H]1C[C@@H]2O [Compound 4, Fmoc-VA-PABC-diamine-PTX] | 98.31 | 89.84 | 76.32 | 72.91 | 58.50 | 105.08 | 98.99 | 79.84 | 76.95 | 61.83 | 68.01 | 98.31 | 83.72 | 80.54 | 75.94 | 52.91 | 49.81 | 94.7 | 52.5 | 47.5 | remaining at 0.5 h, 4.98 µM ([2]; acetate/EDTA buffer pH 5.4, pH 5.4 buffer, 30 min, read-out: Stability pH 5.4, % residual compound): 90.8%; Stability pH 5.4, % residual compound ([2]; pH 5.4 buffer, 240 min (4 h)): 47.4%; Stability pH 7.4, % residual compound ([2]; pH 7.4 PBS, 120 min): 96.21%; Stability pH 7.4, % residual compound ([2]; pH 7.4 PBS, 240 min): 95.00%; remaining at 0.5 h, 1 μM [3]: 96.1%; remaining at 2 h, 1 μM [3]: 104%; remaining at 4 h, 1 μM [3]: 108%; remaining at 0.5 h, 1 μM [4]: 101%; remaining at 2 h, 1 μM [4]: 106%; remaining at 4 h, 1 μM [4]: 107%
